Experimental data as given in patent publication US8338418B2, “Dual-acting antihypertensive agents” (Theravance, Inc., priority 2008, dated 2012).

Assays:
human AT1 receptor = target: T1, human AT1 receptor (Homo sapiens, UniProt P30556); experiment: AT1 radioligand binding assay; settings: [Eu]AngII displacement, CHO-K1 membranes expressing human AT1; read-out: pKi at the AT1 receptor (converted)
T1 construct: expressed in transfected cells; membrane preparation
T1 sequence (P30556 1-359): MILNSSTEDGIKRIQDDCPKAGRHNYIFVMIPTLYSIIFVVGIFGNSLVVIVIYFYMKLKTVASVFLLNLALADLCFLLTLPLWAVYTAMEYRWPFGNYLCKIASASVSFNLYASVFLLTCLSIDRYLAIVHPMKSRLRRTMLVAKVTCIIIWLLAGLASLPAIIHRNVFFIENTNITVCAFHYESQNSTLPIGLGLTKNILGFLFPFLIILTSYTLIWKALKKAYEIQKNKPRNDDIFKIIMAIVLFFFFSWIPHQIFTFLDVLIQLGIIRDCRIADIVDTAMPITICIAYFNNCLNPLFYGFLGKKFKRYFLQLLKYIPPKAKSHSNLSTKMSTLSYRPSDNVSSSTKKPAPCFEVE
Procedure: These in vitro assays were used to assess the ability of test compounds to bind to the AT1 and the AT2 receptors.
Membrane Preparation from Cells Expressing Human AT1 or AT2 Receptors
Chinese hamster ovary (CHO-K1) derived cell lines stably expressing the cloned human AT1 or AT2 receptors, respectively, were grown in HAM's-F12 medium supplemented with 10% fetal bovine serum, 10 μg/ml penicillin/streptomycin, and 500 μg/ml geneticin in a 5% CO2 humidified incubator at 37° C. AT2 receptor expressing cells were grown in the additional presence of 100 nM PD123,319 (AT2 antagonist). When cultures reached 80-95% confluence, the cells were washed thoroughly in PBS and lifted with 5 mM EDTA. Cells were pelleted by centrifugation and snap frozen in MeOH-dry ice and stored at −80° C. until further use.
For membrane preparation, cell pellets were resuspended in lysis buffer (25 mM Tris/HCl pH 7.5 at 4° C., 1 mM EDTA, and one tablet of Complete Protease Inhibitor Cocktail Tablets with 2 mM EDTA per 50 mL buffer (Roche cat. #1697498, Roche Molecular Biochemicals, Indianapolis, Ind.)) and homogenized using a tight-fitting Dounce glass homogenizer (10 strokes) on ice. The homogenate was centrifuged at 1000×g, the supernatant was collected and centrifuged at 20,000×g. […] Protein concentration of the membrane suspension was determined by the method described in Bradford (1976) Anal Biochem. 72:248-54. […]

NEP enzyme = target: T2, NEP enzyme (Homo sapiens, UniProt P08473); experiment: In vitro NEP enzyme inhibition assay; type: biochemical; settings: fluorogenic peptide substrate; read-out: pIC50 for the NEP enzyme (converted)
T2 construct: purchased R&D Systems, Minneapolis, Minn; 1182-ZN
Procedure: The inhibitory activities of compounds at human and rat NEP and human ACE were determined using in vitro assays as described below.
Rat NEP was prepared from the kidneys of adult Sprague Dawley rats. Whole kidneys were washed in cold PBS and brought up in ice-cold lysis buffer (1% Triton X-114, 150 mM NaCl, 50 mM Tris pH 7.5; Bordier (1981) J. Biol. Chem. 256:1604-1607) in a ratio of 5 mL of buffer for every gram of kidney. Samples were homogenized using a polytron hand held tissue grinder on ice. Homogenates were centrifuged at 1000×g in a swinging bucket rotor for 5 minutes at 3° C. The pellet was resuspended in 20 mL of ice cold lysis buffer and incubated on ice for 30 minutes. […] Protein concentrations were quantitated using a BCA detection system with BSA as a standard. […]
The assays were performed in 384-well white opaque plates at room temperature using the respective fluorogenic peptides at a concentration of 10 μM in Assay Buffer (50 mM Tris/HCl at 25° C., 100 mM NaCl, 0.01% Tween-20, 1 μM Zn, 0.025% BSA). […] The rat NEP enzyme preparation was used at a concentration that yielded quantitative proteolysis of 3 μM of Mca-RRL within 20 minutes at room temperature. […]
Plates were read on a fluorometer with excitation and emission wavelengths set to 320 nm and 405 nm, respectively. […]

T2 sequence (P08473 52-750 limits assumed): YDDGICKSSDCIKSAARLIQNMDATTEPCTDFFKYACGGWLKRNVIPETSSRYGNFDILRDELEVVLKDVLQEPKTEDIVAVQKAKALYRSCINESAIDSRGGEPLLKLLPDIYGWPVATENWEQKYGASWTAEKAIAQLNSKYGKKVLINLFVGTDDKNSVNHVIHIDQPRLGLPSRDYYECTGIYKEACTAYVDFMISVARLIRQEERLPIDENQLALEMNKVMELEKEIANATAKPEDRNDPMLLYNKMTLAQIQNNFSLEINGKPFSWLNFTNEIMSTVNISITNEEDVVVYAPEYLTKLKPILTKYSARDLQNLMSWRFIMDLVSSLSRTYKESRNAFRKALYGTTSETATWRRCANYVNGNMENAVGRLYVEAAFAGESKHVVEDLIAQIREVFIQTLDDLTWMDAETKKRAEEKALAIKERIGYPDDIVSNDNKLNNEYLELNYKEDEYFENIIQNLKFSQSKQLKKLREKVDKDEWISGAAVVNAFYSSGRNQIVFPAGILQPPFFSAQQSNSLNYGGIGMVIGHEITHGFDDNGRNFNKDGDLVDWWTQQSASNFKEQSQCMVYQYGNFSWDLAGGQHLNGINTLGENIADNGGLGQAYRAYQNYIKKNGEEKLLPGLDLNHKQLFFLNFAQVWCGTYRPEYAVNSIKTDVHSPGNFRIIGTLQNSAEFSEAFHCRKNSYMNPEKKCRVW

## CCCCc1nc(C(=O)N[C@@H](CC(=O)NO)Cc2ccccc2)cn1Cc1ccc(C(=O)O)cc1 [Example 1, 4-[4-((R)-1-benzyl-2-hydroxycarbamoylethylcarbamoyl)-2-butyl-imidazol-1-ylmethyl]benzoic Acid]
Human AT1 receptor
  Ki: < 10 µM
NEP enzyme
  IC50: ≤ 0.1 µM
